One data set deals with LPS-stimulated PBMCs. The experiment in a line: Cytokine secretion, Cytometric Bead Array. Type of data set: cell-based, human. The note with it: for dose-dependent effects on cytokine release from LPS-stimulated PBMCs: dose–response curves (Figure S12). Here is the method:
PBMCs (1.5 × 10^6/mL) were plated in culture media in 96-well round-bottom plates. After a 60 min treatment with compounds at 37 °C and 5% CO2, cells were stimulated with LPS (Escherichia coli, O111:B4, 1 μg/mL, Sigma) for 24 h. Supernatants were then collected and analyzed for cytokine release by Human Inflammatory Cytokine Cytometric Bead Array (BD Biosciences, New Jersey, USA).

A short description of data set [1]: Metabolic stability in human liver microsomes. Conditions: for half-life at 2 μM / k el at 2 μM / microsomal CLint at 2 μM: pH 7.4, human liver microsomes, 40 min. In kind it is in vitro ADME. Here is the method:
Metabolic stability in human liver microsomes
Microsomal incubations were carried out in 96-well plates in 5 aliquots of 30 μL each (one for each time point). Liver microsomal incubation medium comprised of phosphate buffer (100 mM, pH 7.4), MgCl2 (3.3 mM), NADPН (3 mM), glucose-6-phosphate (5.3 mM), glucose-6-phosphate dehydrogenase (0.67 units/ml) with 0.42 mg of liver microsomal protein per mL. In the control reactions, the NADPH-cofactor system was substituted with phosphate buffer. Test compounds (2 μM, final acetonitrile concentration 1.6 %) were incubated with microsomes at 37 °C, shaking at 100 rpm. Five time points over 40 min were analyzed. The reactions were stopped by adding 4 volumes of acetonitrile with internal standard to incubation aliquots, followed by protein sedimentation by centrifuging at 5500 rpm for 5 min. Each reaction was performed in duplicates. Supernatants were analyzed using the HPLC system coupled with a tandem mass spectrometer. […]
(Liver microsomes are a subcellular fraction often used to study metabolism.)

A short description of data set [2]: Gastrointestinal tract parallel artificial membrane permeability (PAMPA) assay. In kind it is in vitro ADME. Conditions: GIT PAMPA; for Permeability, Log10 [cm/s]: pH 7.4, 50 μM, 4 hours; for Papp at 4 h, 50 μM: pH 7.4, read-out: Pe. How it is done:
Gastrointestinal tract parallel artificial membrane permeability (PAMPA) assay All steps of the PAMPA were carried out according to the pION Inc. PAMPA Explorer™ Manual. The main principle of the assay is the incubation of the compound in the donor chamber (a well in the Donor Plate) with an aqueous buffer, which is separated from the acceptor chamber (a well in the Acceptor Plate) with another buffer by a phospholipid or hydrocarbon membrane fixed on a filter support. After the test, concentrations in the corresponding donor and acceptor wells are measured, and permeability is calculated. The GIT model was simulated using the GIT-0 phospholipid mix.
Verapamil, quinidine (high permeability), and ranitidine (low permeability) were used as reference […]
All compounds were tested in triplicate. Prisma HT buffer (pH 7.4) containing 50 μM test compounds (0.5% DMSO) was added to the Donor Plate wells. Acceptor Sink Buffer was added to each well of the Acceptor Plate. Incubation was done at room temperature for 4 hours without stirring. After […]
incubation, aliquots from both plates were transferred to optic UV-Vis plates, and optic plates were read on a microplate reader in absorbance mode in the range of 230-550 nm with a 4 nm step. Then, the apparent permeability coefficient was calculated. […]
(§1) In order to define non-specific loss of the compound during this assay, standard solution was created by mixing an aliquot of spiked plasma with blank buffer without dialysis. Two aliquots of the standard solution were incubated with shaking (250 rpm) at 37 °C, 5% CO2, and a saturating humidity (~95%) for 5 h (recovery samples). The other two aliquots were immediately diluted with acetonitrile and stored at 4 °C until LC-MS/MS analysis (stability samples). All samples were diluted 5-fold with 90% acetonitrile with internal standard with subsequent plasma proteins sedimentation by centrifuging at 6000 rpm for 5 min. Supernatants were analyzed using HPLC system coupled with tandem mass spectrometer. Verapamil was used as a reference compound to control proper assay […]
Bortezomib and its analogs are known to exist as the free boronic acid as well as dimeric and trimeric boronic anhydrides. These forms interconvert rapidly in solution and are indistinguishable by routine […]
activity of such compounds. On UHPLC, the interconverting boronic species were not chromatographically resolved; however, diastereomers were at least partially separated, yielding two distinct chromatographic signals with identical mass spectra. By contrast, the bortezomib reference standard produced a single chromatographic signal, consistent with its pure enantiomeric form (see
For orientation: The PAMPA barrier holds no transporters, so it reflects passive diffusion.

The nature of data set [3]: Human plasma protein binding, equilibrium dialysis. In kind it is in vitro ADME. The note with it: for % of bound compound: human plasma, 1 μM, dialysis 5 h; for recovery at 5 h, 1 µM: human, pH 7.4; for recovery at 5 h, 1 µM / Stability [%]: plasma protein binding assay. Here is the method:
Human plasma protein binding
as §1, with “The assay was performed in a multiple-use 96-well dialysis unit (HTD96b dialyzer). Each individual well unit consisted of two chambers separated by a vertically aligned dialysis membrane of predetermined pore size (MWCO 14 kDa). 125 µL of non-diluted plasma spiked with the compound (1 μM, final DMSO and acetonitrile concentration was 0.005% and 1%, respectively) was added to one chamber and the same volume of PBS buffer pH 7.4 to the other chamber. HTD96b dialyzer was incubated with shaking (250 rpm) at 37 °C, 5% CO2, and a saturating humidity (~95%) for 5 h. For samples preparation, an aliquot of the content of each chamber had been mixed with the same volume of the blank opposite matrix. In” for “In”, “spectrometer.” for “spectrometer. Verapamil was used as a reference compound to control proper assay”

For the molecule `O=C(N[C@@H](Cc1ccccc1)C(=O)N[C@H](B(O)O)C1CCCC1)c1cnccn1` [5l, ((R)-Cyclopentyl((S)-3-phenyl-2-(pyrazine-2-carboxamido)propanamido)methyl)boronic Acid], the “Effect on secretion of cytokines in LPS-stimulated PBMCs” value in the data set with LPS-stimulated PBMCs (250 nM, 1 h pretreatment, LPS 1 μg/mL, 24 h, IL-1, IL-6, IL-8, IL-10, TNF-α) is reported as “strongest effects”. The “dose-dependent effects on cytokine release from LPS-stimulated PBMCs” value in the data set on LPS-stimulated PBMCs is “very comparable effects”. In addition, in data set [1] (compared with bortezomib), the microsomal stability result is recorded as “higher microsomal stability”. In data set [1], this molecule showed a half-life at 2 μM of 39.4 min, a k el at 2 μM of 0.0003 s⁻¹ and a microsomal CLint at 2 μM of 42 µL/min/mg. In data set [2], the Pe came out at 15.8 ×10⁻⁶ cm/s; the “Permeability, Log10 [cm/s]” value was -4.8 ± 0.06 Log10 [cm/s]; the Papp at 4 h, 50 μM is 15.8 ×10⁻⁶ cm/s. For the same molecule, in data set [3], the “% of bound compound” value is 91%; the recovery at 5 h, 1 µM turned out to be 93%; the “Stability [%]” value is 86%.
On to `CC(C)C[C@H](NC(=O)[C@H](Cc1ccccc1)NC(=O)c1cnccn1)B(O)O` [bortezomib, reference compound], for which, in the data set with LPS-stimulated PBMCs, the “dose-dependent effects on cytokine release from LPS-stimulated PBMCs” value is given as “very comparable effects”. In data set [1], this molecule showed a half-life at 2 μM of 34.5 min, a k el at 2 μM of 0.000333 s⁻¹ and a microsomal CLint at 2 μM of 48 µL/min/mg. Besides, in data set [2], the Pe turned out to be 15.8 ×10⁻⁶ cm/s; the “Permeability, Log10 [cm/s]” value was -4.8 ± 0.02 Log10 [cm/s]; the Papp at 4 h, 50 μM stood at 15.8 ×10⁻⁶ cm/s. Also, in data set [3], the “% of bound compound” value was 93%; the recovery at 5 h, 1 µM was 100%; the “Stability [%]” value was determined as 92%.

A word on the half-life: it is how long it takes for the measured level to halve. Lower therefore signals fast loss. The term microsomal CLint denotes a measure of how fast metabolising enzymes remove a compound, apart from limits set by blood flow. Read a high microsomal CLint as rapid turnover.

The record behind these values is publication PMC12751025, “α‑Aminoboronic Acid Moieties in Boro Dipeptides Modulate Proteasome Subunit Selectivity and Provide Access to Compounds with Potent Anticancer and Anti-Inflammatory Activity” (Journal of Medicinal Chemistry, 2025).
